Source: patent publication US11273150B2, “Compositions and methods for the treatment of presbyopia” (priority 2018, dated 2022)
Where “and” joins values, the source holds several entries; their conditions need not be identical. Equal entries are not always repeated. Blank lines part the entries; values can stand above or below the compound they belong to.

Key:
eye [1] = assay: Efficacy and comfort of various nonionic surfactants (Example 15, Table 10); parameters: species or system human; settings: in vivo
Source text: Duration was excellent for each nonionic surfactant tested.

eye [2] = assay: Clinical observations stated in the description (miosis, duration, blur, redness, anterior chamber); format: in vivo, human
presbyopic subjects = assay: Effect of aceclidine on vision of presbyopic subjects aged 47 to 67 years (Example 1); format: in vivo, human; settings: for Effect: duration of effect; for L Post Dist: left eye distance vision; for L Post Dist / L Post Near / R Post Dist / R Post Near: Post Gtt 15″; for R Post Dist: right eye distance vision
Procedure: As aceclidine is an […], the clinical effectiveness may vary with different ratios. For the present studies a nearly exact 50:50 ratio of stereoisomers was measured as best determined by polarimetry.
After administration of the composition all subjects experienced an improvement in their near vision that lasted from 7 to 12 hours.

eye [3] = assay: Effect of concentration of aceclidine, brimonidine, guanfacine, fadolmidine, tropicamide and additives (Example 3); format: in vivo, human
Procedure: All percentages are w/v. Scores for nasal congestion, stinging initial, stinging, 3 min, redness initial, redness 15 min, whitening, pain and overall are out of 4.
“pt” reflects size of print materials, 4 being equivalent to 20/20 vision and 3 to 20/15 vision.
Baseline vision was 20.20 both eyes for distance; 20.70 right eye unaided for near; 20.80 left eye for near (best @ 16″).
D/C stands for discontinued after eye washing due to intolerable stinging.
All baseline vision data was based on vision corrected with distance contact lenses. Near vision was noted by subject as outstanding from 8 to 10 inches to the horizon at 30 minutes after installation for AB4T and AB6T.
AB4T and AB6T were repeated both monocularly and binocularly. Substantial improvement in depth perception, near point acuity to 3 pt (20.15), and near point distance (8″, 20.20) was noted when both eyes were treated vs. monocular treatment.

[4] = Stability of aceclidine at 25° C. and 4° C. by HPLC (Example 10); format: physicochemical
Procedure: 20 samples of the above composition were divided evenly and stored at 25° C. and 4° C. Prior to storage, initial concentrations of aceclidine were measured using […] (“HPLC”). The amount of aceclidine in each solution was calculated by the area under the principal peak compared to a reference solution of aceclidine. Samples were then subject to storage for 3 months. Aceclidine measurements were taken at 1, 2 and 3 months.

[5] = Aceclidine total related substances after storage with or without Mylar lined pouches (Example 18); format: physicochemical
Procedure: Aceclidine total related substances was recorded at 1, 2, 3 and 6 months.
Mylar® was used as the source of biaxially-oriented polyethylene terephthalate. Mylar is a registered trademark of and available from DuPont Teijin Films US Limited.

[6] = Aceclidine potency following storage (Example 19); format: physicochemical
[7] = tested on: emmetrope over the age of 45; assay: Effects of pilocarpine and aceclidine with or without tropicamide and carrier on near and distance vision (FIG. 1); format: in vivo, human
Source text: Subject is an emmetrope over the age of 45 with a baseline near vision of 20.100 and baseline distance vision of 20.20. Topical administration to the eye of 1% w/v pilocarpine in saline solution results in an improvement of near vision to 20.40 (8a), however this improvement comes at the expense of a reduction in distance vision to 20.100 (8b). […] A proper drug carrier can also have a beneficial effect.

eye [8] = settings: cited from earlier work
[9] = aceclidine 1.1% w/v + 0.125% w/v tropicamide, subjects 4 and 5
[10] = aceclidine 1.5% w/v in HPβCD/CMC/NaCl/BAK, one line per subject
[11] = Pouched (5 C.), first listing (r9)
[12] = Pouched (5 C.), second listing (r12)
[13] = Pouched (25 C.), first listing (r10)
[14] = Pouched (25 C.), second listing (r13)
[15] = Pouched (5 C.), first group (initial 99.70%)
[16] = Pouched (5 C.), second group (initial 99.60%)
[17] = Pouched (25 C.), first group (initial 99.70%)
[18] = Pouched (25 C.), second group (initial 99.60%)

Redness 1 hr (eye [1]): 0.5
Stinging (eye [1]): 0.25
Compound: Polysorbate 80

distance blur (eye [2]; pilocarpine instilled monocularly): 2-3 lines
Compound: CC[C@@H]1C(=O)OC[C@@H]1Cc1cncn1C [pilocarpine]
pupil size (eye [2]; upon instillation of 1.0% pilocarpine, or larger in most subjects): ≥ 2.3 mm

Redness 1 hr (eye [1]): 0.25-
Stinging (eye [1]): 0-2
Compound: Tyloxapol

Redness 1 hr (eye [1]): 1
Stinging (eye [1]): 0.5
Compound: Poloxamer 407

More lines, now with the values behind:

Compound: Poloxamer 188
Redness 1 hr (eye [1]): 0.25-
Stinging (eye [1]): 0-2

Compound: Polyoxyl 35 castor oil
Redness 1 hr (eye [1]): 0.25
Stinging (eye [1]): 0

Compound: CC(=O)OC1CN2CCC1CC2 (stereo not drawn) [Aceclidine, aceclidine]
Effect (presbyopic subjects; [9]): 7.00 h and 12.00 h
Effect (presbyopic subjects; [10]): 8.00 h (4×) and 9.00 h
L Post Dist (presbyopic subjects; [9]): 20.20 and 20.15
L Post Dist (presbyopic subjects; [10]): 20.20 (2×) and 20.30 and 20.25 (2×)
L Post Near (presbyopic subjects; left eye near vision (15 inches), aceclidine 1.5% w/v in HPβCD/CMC/NaCl/BAK, one line per subject): 20.15 (3×) and 20.30 and 20.20
L Post Near (presbyopic subjects; left eye near vision, aceclidine 1.1% w/v + 0.125% w/v tropicamide, subjects 4 and 5): 20.25 and 20.15
R Post Dist (presbyopic subjects; aceclidine 1.1% w/v + 0.125% w/v tropicamide, same carrier, subjects 4 and 5): 20.20 and 20.15
R Post Dist (presbyopic subjects; [10]): 20.20 (3×) and 20.25 (2×)
R Post Near (presbyopic subjects; right eye near vision (15 inches), aceclidine 1.5% w/v in HPβCD/CMC/NaCl/BAK, one line per subject): 20.15 (3×) and 20.20 and 20.25
R Post Near (presbyopic subjects; right eye near vision, aceclidine 1.1% w/v + 0.125% w/v tropicamide, subjects 4 and 5): 20.25 and 20.20
corrected near and distance vision to 20.20 or better, duration (eye [3]; aceclidine 1.55% w/v): at least 6 hours
noticeable affect lasting (eye [3]; aceclidine 1.55% w/v): about 7.5 hours
size of the pupil (eye [3]; aceclidine 1.55% w/v, 30 minutes after topical instillation): about 1.63 mm
near vision improvement (eye [3]; aceclidine lowered to 1.25% w/v (not shown)): 20.25-20.30
Stability of Aceclidine, 1 month ([4]; 4° C., Example 10 composition): 93%
Stability of Aceclidine, 2 months ([4]; 4° C., Example 10 composition): 92%
Stability of Aceclidine, 3 months ([4]; 4° C., Example 10 composition): 88%
Stability of Aceclidine, Initial ([4]; 4° C., Example 10 composition): 100%
Stability of Aceclidine, 1 month ([4]; 25° C., Example 10 composition): 92%
Stability of Aceclidine, 2 months ([4]; 25° C., Example 10 composition): 75%
Stability of Aceclidine, 3 months ([4]; 25° C., Example 10 composition): 50%
Stability of Aceclidine, Initial ([4]; 25° C., aceclidine 1.50%, tropicamide 0.042%, polyoxyl 40 stearate 5.5%, mannitol 2.5%, citrate 3 mM, pH 4.75): 100%
Aceclidine Total Related Substances, One Month Result [5, 11]: 0.54%
Aceclidine Total Related Substances, Six Month Result [5, 11]: 0.47%
Aceclidine Total Related Substances, Three Month Result [5, 11]: 0.35%
Aceclidine Total Related Substances, Total % Change [5, 11]: 0.06%
Aceclidine Total Related Substances, One Month Result [5, 12]: 0.50%
Aceclidine Total Related Substances, Six Month Result [5, 12]: 0.00%
Aceclidine Total Related Substances, Three Month Result [5, 12]: 0.18%
Aceclidine Total Related Substances, Total % Change [5, 12]: −0.41%
Aceclidine Total Related Substances, One Month Result [5, 13]: 0.55%
Aceclidine Total Related Substances, Six Month Result [5, 13]: 0.36%
Aceclidine Total Related Substances, Three Month Result [5, 13]: 1.26%
Aceclidine Total Related Substances, Total % Change [5, 13]: −0.05% and 0.05%
Aceclidine Total Related Substances, One Month Result [5, 14]: 0.74%
Aceclidine Total Related Substances, Six Month Result [5, 14]: 0.00%
Aceclidine Total Related Substances, Three Month Result [5, 14]: 0.31%
Aceclidine Total Related Substances, Total % Change [5, 14]: −0.41%
Aceclidine Total Related Substances, One Month Result ([5]; Pouched (−20 C.)): 0.74%
Aceclidine Total Related Substances, Six Month Result ([5]; Pouched (−20 C.)): 0.00%
Aceclidine Total Related Substances, Three Month Result ([5]; Pouched (−20 C.)): 0.25%
Aceclidine Total Related Substances, Total % Change ([5]; Pouched (−20 C.)): −0.41%
Aceclidine Total Related Substances, One Month Result ([5]; Unpouched (5 C.)): 0.55%
Aceclidine Total Related Substances, Six Month Result ([5]; Unpouched (5 C.)): 0.49%
Aceclidine Total Related Substances, Three Month Result ([5]; Unpouched (5 C.)): 0.05%
Aceclidine Total Related Substances, Total % Change ([5]; Unpouched (5 C.)): 0.08%
Aceclidine Total Related Substances, Two Month Result ([5]; Unpouched (5 C.)): 0.51%
Aceclidine Total Related Substances, Initial Result ([5]; Unpouched (5 C.) line, initial): 0.41%
Aceclidine Total Related Substances, One Month Result ([5]; Unpouched (25 C.)): 0.58%
Aceclidine Total Related Substances, Six Month Result ([5]; Unpouched (25 C.)): 4.87%
Aceclidine Total Related Substances, Three Month Result ([5]; Unpouched (25 C.)): 1.39%
Aceclidine Total Related Substances, Total % Change ([5]; Unpouched (25 C.)): 4.46%
Aceclidine Total Related Substances, Two Month Result ([5]; Unpouched (25 C.)): 1.45%
Aceclidine Potency, One Month Result [6, 15]: 100.0%
Aceclidine Potency, Six Month Result [6, 15]: 100.8%
Aceclidine Potency, Three Month Result [6, 15]: 99.7%
Percent Change Between Initial and Six Month Results [6, 15]: 1.1%
Aceclidine Potency, One Month Result [6, 16]: 99.5%
Aceclidine Potency, Six Month Result [6, 16]: 102.2%
Aceclidine Potency, Three Month Result [6, 16]: 102.3%
Percent Change Between Initial and Six Month Results [6, 16]: 2.6%
Aceclidine Potency, One Month Result [6, 17]: 98.4%
Aceclidine Potency, Six Month Result [6, 17]: 94.9%
Aceclidine Potency, Three Month Result [6, 17]: 97.5%
Percent Change Between Initial and Six Month Results [6, 17]: −4.8%
Aceclidine Potency, One Month Result [6, 18]: 103.0%
Aceclidine Potency, Six Month Result [6, 18]: 96.0%
Aceclidine Potency, Three Month Result [6, 18]: 99.0%
Percent Change Between Initial and Six Month Results [6, 18]: 3.6%
Aceclidine Potency, One Month Result ([6]; Pouched (−25 C.)): 98.5%
Aceclidine Potency, Six Month Result ([6]; Pouched (−25 C.)): 103.1%
Aceclidine Potency, Three Month Result ([6]; Pouched (−25 C.)): 101.4%
Percent Change Between Initial and Six Month Results ([6]; Pouched (−25 C.)): 3.5%
Aceclidine Potency, Initial Result ([6]; Pouched (−25 C.) line, initial of second group): 99.60%
Aceclidine Potency, One Month Result ([6]; Unpouched (5 C.)): 99.3%
Aceclidine Potency, Six Month Result ([6]; Unpouched (5 C.)): 100.5%
Aceclidine Potency, Three Month Result ([6]; Unpouched (5 C.)): 100.0%
Aceclidine Potency, Two Month Result ([6]; Unpouched (5 C.)): 102.0%
Percent Change Between Initial and Six Month Results ([6]; Unpouched (5 C.)): 0.8%
Aceclidine Potency, Initial Result ([6]; Unpouched (5 C.) line, initial of first group): 99.70%
Aceclidine Potency, One Month Result ([6]; Unpouched (25 C.)): 98.2%
Aceclidine Potency, Six Month Result ([6]; Unpouched (25 C.)): 97.7%
Aceclidine Potency, Three Month Result ([6]; Unpouched (25 C.)): 98.2%
Aceclidine Potency, Two Month Result ([6]; Unpouched (25 C.)): 101.9%
Percent Change Between Initial and Six Month Results ([6]; Unpouched (25 C.)): −2.0%
extended time period of near vision improvement ([7]; 1.55% w/v aceclidine in saline solution): 6 h
distance vision ([7]; 1.55% w/v aceclidine in saline solution, baseline 20.20): without any effect on the baseline distance vision
near vision ([7]; 1.55% w/v aceclidine in saline solution, baseline near 20.100): 20.40
near vision ([7]; aceclidine + 0.042% w/v tropicamide in the carrier): 20.15
near vision ([7]; aceclidine in carrier (5.5% HPβCD, 0.75% CMC, 0.25% NaCl, 0.01% BAK), better than): > 20.20
anterior chamber shallowing (eye [2]; aceclidine with further inclusion of a cycloplegic agent): 0.04 mm

Compound: Brc1c(NC2=NCCN2)ccc2nccnc12 [brimonidine]
rebound redness, patients (eye [8]; brimonidine 0.20% w/v (Alphagan®) twice daily): 25%
tachyphylaxis of pupil modulation, treated subjects (eye [8]; brimonidine 0.20% w/v topically for night vision, within four weeks of use, almost): ~100%
